Reference: US12251383B2, “Methods and compositions for KRAS inhibitors” (The Board of Regents of the University of Texas System, priority 2019, dated 2025)

Tests used:
GDP-bound KRAS^G12D = GDP-bound KRAS^G12D (Homo sapiens, UniProt P01116, G12D); assay: MST binding, GDP-bound KRAS G12D; conditions: GDP state
From the text: FIGS. 1A-1D show representative data for the predicted binding mode and measured affinity of disclosed compound 11 to KRAS. (FIG. 1A) Structure of the catalytic domain of KRAS used for the virtual screening. Lobe1 (residues 1-86) and lobe2 (residues 87-166) are highlighted in different colors, as well as switches 1 (residues 30-40) and 2 (residues 60-75). The location of the target allosteric pocket p1 is indicated. (FIG. 1B) Chemical structure of compound 11. (FIG. 1C) Predicted binding pose of compound 11, with the key residues that make polar or vdW contacts with the ligand labeled. (FIG. 1D) Microscale thermophoresis (MST) experiments indicating direct binding of compound 11 to KRAS, along with dissociation constants (KD) derived from the curves. Changes in fluorescence upon titration of […] KRAS with increasing concentration of compound are shown: KRAS^WT (red), KRAS^G12C (green), KRAS^G12D (purple) and KRAS^Q61M (blue), each bound to the non-hydrolyzable GTP analogue, guanylyl imidodiphosphate (GNP). The same experiments indicated no binding to GDP-bound KRAS^G12D and KRAS^WT as well as Rap1B, which was used as control. […]

KRAS-Raf^RBD interaction = KRAS-Raf^RBD interaction (Homo sapiens, UniProt P01116); assay: Fluorescence polarization of BGTP-γ-S KRAS with GST-Raf RBD; type: binding
Description: FIGS. 2A-2C show representative data pertaining to the disruption of KRAS-Raf interaction by disclosed compound 11. (FIG. 2A) Fluorescence polarization of ^BGTP-γ-SKRAS (0.5 μM) as a function of a varying concentration of GST-Raf^RBD in the absence (red) and presence (blue) of 1 μM compound 11. Shown above the curves is the KD for KRAS-Raf^RBD binding obtained by fitting the data to
(§1) [formula] where P1 is polarization of free KRAS, P2 is polarization of Raf-bound KRAS, c is the total concentration of KRAS, and x the total concentration of Raf^RBD. (FIG. 2B) Amount of GFP-KRAS^G12D pulled down by GST-Raf^RBD after treatment of cell lysates with compound at the concentrations indicated (representative Westerns are shown at the top). The RBD sequence length was 1-149 and 51-131 in the fluorescence polarization and pull-down assays, respectively. (FIG. 2C) GFP fluorescence lifetime from FLIM-FRET using cells expressing GFP-KRAS^G12D alone or with RFP-Raf, with or without treatment by 1 μM compound 11. Data are shown as mean±S.E; significance estimated by one-way analysis of variance.
Fluorescence polarization. Fluorescence polarization assay was conducted following previous reports (48, 49). KRAS was pre-loaded with the non-hydrolyzable fluorescent GTP analog BODIPY-GTP-γ-S (BGTP-γ-S; Life Technologies) using buffer-exchange in NAP-5 (GE Life Sciences) as described in the previous section. Then 0.5 μM (50 μL) of ^BGTP-γ-SKRAS was incubated with an equal volume but varying concentrations (0 to 2.5 μM) of GST-Raf^RBD (Raf RBD residues 1-149; Life Technologies) for 30 min in the dark. To determine the effect of ligand on RAS-Raf binding, KRAS was first incubated with a fixed concentration of the ligand for 30 min and then with GST-Raf^RBD. Fluorescence polarization was measured using PolarStar Optima plate reader (excitation: 485 nm, emission: 520 nm) at room temperature. GST-tag was used to increase the weight of Raf^RBD for a greater polarization. The dissociation constant for KRAS-Raf binding was determined using a quadratic ligand binding equation (48).

[1] = target: T1, KRAS^G12D-Raf^RBD interaction (Homo sapiens, UniProt P01116, G12D); assay: Pull-down of GFP-KRAS G12D by GST-Raf RBD from cell lysates; type: binding
T1 construct: expressed in transfected cells; host or cells: BHK cells expressing GFP-RAS (lysate); GST-Raf RBD made in E. coli BL21 from a GEX plasmid
From the text: as §1
Pull-down. GFP-RAS with GST-tagged RAS binding domain (RBD) of cRaf^A85K (hereafter GST-Raf^RBD) pulled down to monitor RAS-Raf interaction. To prepare GST-Raf^RBD bound to agarose beads, bacteria (BL21) transfected with a previously cloned GEX plasmid were grown in selection media to OD levels of 0.5-1.0 before protein expression was initiated with IPTG (1:1000). After 4 h, the sample was centrifuged at 6000 rpm for 5 min at 4° C., the pellet was re-suspended with PBS containing 5 mM EGTA, 1% Triton X, PIC 1:50 and PMSF 1:100, and cells were lysed with cycles of freezing and thawing. The lysate was sonicated to breakup DNA, and pelleted. […]

Row | Compound | binding (in words) (GDP-bound KRAS^G12D) | reduction of polarization (RAS-Raf interaction) (KRAS-Raf^RBD interaction; 1 μM compound, at 2 μM GST-Raf^RBD) [%] | reduction of affinity of KRAS to Raf^RBD (KRAS-Raf^RBD interaction; 1 μM compound, from KD of polarization curves) [fold] | decrease in GFP-KRAS^G12D levels pulled down ([1]; at 1 μM) [%] | effect on interaction of KRAS with GST-Raf^RBD (KRAS-Raf^RBD interaction; 20 μM compound) | effect on KRAS^G12D-Raf^RBD interaction (pull-down) ([1]; 10 μM)
1 | Cc1nn2c(N3CCN(CCO)CC3)cc(-c3ccccc3)nc2c1-c1ccccc1 [Compound 11, 2-[4-(8-methyl-3,9-diphenyl-2,6,7-triazabicyclo[4.3.0]nona-2,4,7,9-tetraen-5-yl)piperazin-1-yl]ethanol] | no binding | > 80 | ~13 | > 50 |  | 
2 | Cc1cc(N2CCN(CCO)CC2)n2nc(C)c(-c3ccccc3)c2n1 [Compound 13] | does not bind |  |  |  | as effectively as the parent compound | disrupts
